Experimental data published in PubChem BioAssay AID330 (DTP/NCI, 2004).
“And” between values parts separate entries of the source, which are not always exact repeats. Equal values may be shown once. Toxic doses and inconclusive results are not listed. The calls were made as follows: active = survival T/C of 150% or more; inactive = T/C below 125% in these data.

Tested on: P388 leukemia ip, CD2F1 mice, survival T/C
Experiment: NCI In Vivo Anticancer Drug Screen. Data for tumor model P388 Leukemia (intraperitoneal) in CD2F1 (CDF1) mice
Settings: endpoint: median survival time, higher = longer survival
Procedure, shortened: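 Mice carrying the transplanted tumor received test compound or vehicle. Survival was recorded in each group, and the value is the treated-group measurement divided by that of the vehicle-treated control group.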

[1] = dose: 50.0 mg/kg/injection, schedule: Q01DX009 (ip), vehicle: saline with Tween-80
[2] = dose: 100.0 mg/kg/injection, schedule: Q01DX009 (ip), vehicle: saline with Tween-80
[3] = dose: 200.0 mg/kg/injection, schedule: Q01DX009 (ip), vehicle: saline with Tween-80
[4] = dose: 60.0 mg/kg/injection, schedule: Q01DX005 (ip), vehicle: saline
[5] = dose: 100.0 mg/kg/injection, schedule: Q04DX003 (ip), vehicle: Klucel (hydroxypropylcellulose) (HPC)
[6] = dose: 200.0 mg/kg/injection, schedule: Q04DX003 (ip), vehicle: Klucel (hydroxypropylcellulose) (HPC)
[7] = dose: 400.0 mg/kg/injection, schedule: Q04DX003 (ip), vehicle: Klucel (hydroxypropylcellulose) (HPC)
[8] = dose: 50.0 mg/kg/injection, schedule: Q01DX005 (ip), vehicle: saline
[9] = dose: 100.0 mg/kg/injection, schedule: Q01DX005 (ip), vehicle: saline
[10] = dose: 200.0 mg/kg/injection, schedule: Q01DX005 (ip), vehicle: saline
[11] = dose: 50.0 mg/kg/injection, schedule: Q01DX009 (ip), vehicle: Klucel (hydroxypropylcellulose) (HPC)
[12] = dose: 100.0 mg/kg/injection, schedule: Q01DX009 (ip), vehicle: Klucel (hydroxypropylcellulose) (HPC)
[13] = dose: 200.0 mg/kg/injection, schedule: Q01DX009 (ip), vehicle: Klucel (hydroxypropylcellulose) (HPC)
[14] = dose: 12.5 mg/kg/injection, schedule: Q01DX009 (ip), vehicle: saline with Tween-80
[15] = dose: 25.0 mg/kg/injection, schedule: Q01DX009 (ip), vehicle: saline with Tween-80
[16] = dose: 50.0 mg/kg/injection, schedule: Q01DX005 (ip), vehicle: saline with Tween-80
[17] = dose: 100.0 mg/kg/injection, schedule: Q01DX005 (ip), vehicle: saline with Tween-80

Measured: T/C

CCOC(=O)c1cc[nH]c1CC(=O)OC
inactive: dose: 100.0 mg/kg/injection, schedule: Q01DX001 (ip), vehicle: saline with Tween-80 99 % of control | dose: 200.0 mg/kg/injection, schedule: Q01DX001 (ip), vehicle: saline with Tween-80 96 % of control | dose: 400.0 mg/kg/injection, schedule: Q01DX001 (ip), vehicle: saline with Tween-80 100 % of control

CCCCCCCCCCCCOC1C=C(C)C(=O)O1 (configuration not stated)
inactive: dose: 100.0 mg/kg/injection, schedule: Q04DX002 (ip), vehicle: saline with Tween-80 100 % of control | dose: 200.0 mg/kg/injection, schedule: Q04DX002 (ip), vehicle: saline with Tween-80 101 % of control | dose: 400.0 mg/kg/injection, schedule: Q04DX002 (ip), vehicle: saline with Tween-80 100 % of control

CCOC(=O)c1cn(C)c2c1C(=O)C(C(=O)OCC)CCN2C(=O)OCC (configuration not stated)
inactive: [1] 99 % of control | [2] 105 % of control | [3] 107 % of control

O=C1NC(=O)C2CCCc3cccc1c32 (configuration not stated)
inactive: [1] 100 % of control | [2] 97 % of control | [3] 110 % of control

NNP(=O)(NN)C(Cl)(Cl)Cl
inactive: dose: 15.0 mg/kg/injection, schedule: Q01DX005 (ip), vehicle: saline 101 % of control | dose: 30.0 mg/kg/injection, schedule: Q01DX005 (ip), vehicle: saline 100 % of control | [4] 108 % of control and 114 % of control

CCCCCCC(=O)/C=c1\c(CC(=O)CCCCCC)nc2nnc(N)n12
inactive: dose: 60.0 mg/kg/injection, schedule: Q01DX005 (ip), vehicle: saline with Tween-80 96 % of control | dose: 120.0 mg/kg/injection, schedule: Q01DX005 (ip), vehicle: saline with Tween-80 100 % of control | dose: 240.0 mg/kg/injection, schedule: Q01DX005 (ip), vehicle: saline with Tween-80 88 % of control

BrCc1ccc2ccc3ccc(CBr)nc3c2n1
inactive: dose: 7.5 mg/kg/injection, schedule: Q01DX005 (ip), vehicle: saline with Tween-80 103 % of control | dose: 15.0 mg/kg/injection, schedule: Q01DX005 (ip), vehicle: saline with Tween-80 115 % of control | dose: 30.0 mg/kg/injection, schedule: Q01DX005 (ip), vehicle: saline with Tween-80 106 % of control

c1ccc(CN2Cc3c(n(-c4ccccc4)c4ccccc34)C2)cc1
inactive: [5] 105 % of control | [6] 112 % of control | [7] 114 % of control

CCN(CC)CCNN
inactive: [8] 100 % of control | [9] 100 % of control | [10] 103 % of control

CC(=O)N(CC(=O)Nc1ccc(S(N)(=O)=O)cc1)C(C)C
inactive: [11] 100 % of control | [12] 99 % of control | [13] 92 % of control

O=c1[nH]c2c(c(O)c1-c1ccccc1)CCCN2
inactive: [5] 102 % of control | [6] 100 % of control | [7] 110 % of control

CSC(=S)N/N=C(C)\C=N/Nc1ccccc1
inactive: dose: 100.0 mg/kg/injection, schedule: Q04DX002 (ip), vehicle: saline 101 % of control | dose: 200.0 mg/kg/injection, schedule: Q04DX002 (ip), vehicle: saline 106 % of control | dose: 400.0 mg/kg/injection, schedule: Q04DX002 (ip), vehicle: saline 96 % of control

CSC(=S)N/N=C(/C)CC(C)C
inactive: [14] 105 % of control | [15] 120 % of control | [1] 100 % of control

O=c1[nH][nH]c(=O)c2[nH]cnc12
inactive: dose: 50.0 mg/kg/injection, schedule: Q04DX003 (ip), vehicle: saline with Tween-80 98 % of control | dose: 100.0 mg/kg/injection, schedule: Q04DX003 (ip), vehicle: saline with Tween-80 100 % of control | dose: 200.0 mg/kg/injection, schedule: Q04DX003 (ip), vehicle: saline with Tween-80 100 % of control | dose: 400.0 mg/kg/injection, schedule: Q04DX003 (ip), vehicle: saline with Tween-80 106 % of control

CN(C)CCN1C(=O)CN=C(c2ccccc2Cl)c2cc(Cl)ccc21
inactive: [4] 102 % of control | dose: 120.0 mg/kg/injection, schedule: Q01DX005 (ip), vehicle: saline 99 % of control | dose: 240.0 mg/kg/injection, schedule: Q01DX005 (ip), vehicle: saline 95 % of control

CCOC(=O)C1Cc2c([nH]c(=O)[nH]c2=O)OC1c1ccc([N+](=O)[O-])cc1 (configuration not stated)
inactive: dose: 50.0 mg/kg/injection, schedule: Q01DX005 (ip), vehicle: Klucel (hydroxypropylcellulose) (HPC) 97 % of control | dose: 100.0 mg/kg/injection, schedule: Q01DX005 (ip), vehicle: Klucel (hydroxypropylcellulose) (HPC) 89 % of control | dose: 200.0 mg/kg/injection, schedule: Q01DX005 (ip), vehicle: Klucel (hydroxypropylcellulose) (HPC) 94 % of control

Cc1ccnc(NC(O)C(Cl)(Cl)Cl)c1 (configuration not stated)
inactive: dose: 25.0 mg/kg/injection, schedule: Q01DX009 (ip), vehicle: Klucel (hydroxypropylcellulose) (HPC) 100 % of control | [11] 100 % of control | [12] 98 % of control | [13] 100 % of control

CC1CC(C)/C(=N/NC(N)=O)C(C(O)CC2CCC(=O)NC2=O)C1 (configuration not stated)
inactive: [16] 100 % of control | [17] 115 % of control | dose: 200.0 mg/kg/injection, schedule: Q01DX005 (ip), vehicle: saline with Tween-80 115 % of control

O=C1CC2(CCCC2)C(=O)N1c1cccc2ccccc12
inactive: [11] 94 % of control | [12] 106 % of control | [13] 111 % of control

CCC(C)C(NC(=O)C(Cc1cnc[nH]1)N(C(=O)OCc1ccccc1)C(=O)OCc1ccccc1)C(=O)OCc1ccccc1 (configuration not stated)
inactive: [16] 100 % of control | [17] 93 % of control

Cc1cnn(-c2ccccc2)[n+]1[O-]
inactive: [8] 99 % of control | [9] 96 % of control | [10] 102 % of control

CC(C)(N)C(=O)O
inactive: [14] 101 % of control | [15] 94 % of control | [1] 100 % of control | [2] 94 % of control | [3] 100 % of control | dose: 400.0 mg/kg/injection, schedule: Q01DX009 (ip), vehicle: saline with Tween-80 94 % of control | dose: 800.0 mg/kg/injection, schedule: Q01DX009 (ip), vehicle: saline with Tween-80 94 % of control | dose: 1600.0 mg/kg/injection, schedule: Q01DX009 (ip), vehicle: saline with Tween-80 94 % of control

C=C(C)C12CC(C)C34OC(/C=C/C=C/CCCCC)(OC1C3C1OC1(CO)C(O)C1(O)C(=O)C(C)=CC14)O2 (configuration not stated)
inactive: dose: 0.03 mg/kg/injection, schedule: Q01DX009 (ip), vehicle: distilled water + alcohol 96 % of control | dose: 0.06 mg/kg/injection, schedule: Q01DX009 (ip), vehicle: distilled water + alcohol 102 % of control | dose: 0.12 mg/kg/injection, schedule: Q01DX009 (ip), vehicle: distilled water + alcohol 98 % of control | dose: 0.25 mg/kg/injection, schedule: Q01DX009 (ip), vehicle: distilled water + alcohol 106 % of control | dose: 0.5 mg/kg/injection, schedule: Q01DX009 (ip), vehicle: distilled water + alcohol 98 % of control | dose: 1.0 mg/kg/injection, schedule: Q01DX009 (ip), vehicle: distilled water + alcohol 108 % of control

Cc1ccc2c(ccc(/C=C/c3ccc(O)c4ncccc34)[n+]2C)c1
inactive: [14] 116 % of control | [15] 105 % of control

CC1(C)S[C@@H]2C(Cl)=C(Cl)C(=O)N2[C@H]1C(=O)O
inactive: [16] 91 % of control | [17] 91 % of control
